# Test results as given in patent US7070960B2, “Method of increasing product expression through solute stress” (Chiron Corporation, priority 1987, dated 2006).
# Tests used:
# [1] = tested on: hybridoma D-234; experiment: Effect of NH4Cl on D-234 growth and IgM production; type: cell-based, human/human/murine trioma; conditions: 10 mM NH4Cl
# Description: The hybridoma D-234 was grown in HL-1 serum-free medium supplemented with 0.1% Pluronic polyol F-68, 10 mM glutamine and 10 mM NH4Cl. A control was also run without NH4Cl. One hundred ml cultures in 250 ml shake flasks were inoculated at an initial density of 1×10^5 viable cells/ml (91% viability).
# [2] = tested on: D-234; experiment: Effect of Na lactate on D-234 growth and IgM production; type: cell-based, human/human/murine trioma
# Description: Approximately 1×10^5 cells/ml of D-234 were grown in 250 ml shake flasks (agitated at 100 rpm) in HL-1 medium containing 0.1% Pluronic polyol F-68 and 8 mM glutamine. A 1 M stock solution of sodium lactate (pH 7.4) in HL-1 was added to the medium. A preliminary screen of the effect of a broad range of sodium lactate concentrations (0–100 mM) on D-234 growth and IgM production was run. […] Cell densities at day four were reduced at all levels of lactate tested with a critical drop between 40 and 60 mM.
# [3] = tested on: 454A12 hybridomas; experiment: Effect of sodium chloride on IgG production by hybridoma 454A12; type: cell-based, murine
# Description: In another experiment, the 454A12 hybridomas were grown in shake flasks with commercially available HL-1 medium (Ventrex) supplemented with 8 mM glutamine. Osmolality of the standard (control) HL-1 medium was 300 mOsmol/kg. In the test sample, the osmolality was increased to 400 mOsmol/kg using sodium chloride. The result of solute stress in the test sample was evidenced by a 50% decrease in maximum cell density. In the stressed condition, the specific IgG production rate per cell increased throughout the culture period The increase in specific productivity was greatest during the post exponential phase period of the culture when specific productivity was more than 60% higher under the stressed condition (FIG. 3).
compound,measurement,setting,value
"Cl.N [NH4Cl, ammonium chloride]",increase in the production of IgM,[1],2 fold
same,maximum total cell density,[1]; control 2.3×10^6/ml,1.1e+06 mL⁻¹
"CC(O)C(=O)[O-].[Na+] (stereo not shown) [Na Lactate, sodium lactate]",Total Cell Density,"[2]; 20 mM initial lactate, Day 2, 0 mM 4.7",5.6 1 × 10^5/ml
same,% Viability,"[2]; 20 mM initial lactate, Day 2, 0 mM 95",96%
same,IgM,"[2]; 20 mM initial lactate, Day 4, 0 mM 10",20 µg/mL
same,Total Cell Density,"[2]; 20 mM initial lactate, Day 4, 0 mM 21.0",15.0 1 × 10^5/ml
same,% Viability,"[2]; 20 mM initial lactate, Day 4, 0 mM 90",92%
same,IgM,"[2]; 20 mM initial lactate, Day 7, 0 mM 24",35 µg/mL
same,% Viability,"[2]; 40 mM initial lactate, Day 2",92%
same,Total Cell Density,"[2]; 40 mM initial lactate, Day 2",5.1 1 × 10^5/ml
same,% Viability,"[2]; 40 mM initial lactate, Day 4",89%
same,IgM,"[2]; 40 mM initial lactate, Day 4",22 µg/mL
same,Total Cell Density,"[2]; 40 mM initial lactate, Day 4",12.9 1 × 10^5/ml
same,IgM,"[2]; 40 mM initial lactate, Day 7",54 µg/mL
same,% Viability,"[2]; 60 mM initial lactate, Day 2",93%
same,Total Cell Density,"[2]; 60 mM initial lactate, Day 2",2.2 1 × 10^5/ml
same,% Viability,"[2]; 60 mM initial lactate, Day 4",87%
same,IgM,"[2]; 60 mM initial lactate, Day 4",19 µg/mL
same,Total Cell Density,"[2]; 60 mM initial lactate, Day 4",4.1 1 × 10^5/ml
same,IgM,"[2]; 60 mM initial lactate, Day 7, control 24",61 µg/mL
same,cell density as % of the control,[2]; 80 mM added lactate,12%
same,% Viability,"[2]; 80 mM initial lactate, Day 2",81%
same,Total Cell Density,"[2]; 80 mM initial lactate, Day 2",2.1 1 × 10^5/ml
same,% Viability,"[2]; 80 mM initial lactate, Day 4",65%
same,IgM,"[2]; 80 mM initial lactate, Day 4",15 µg/mL
same,Total Cell Density,"[2]; 80 mM initial lactate, Day 4",2.6 1 × 10^5/ml
same,IgM,"[2]; 80 mM initial lactate, Day 7",28 µg/mL
same,% Viability,"[2]; 100 mM initial lactate, Day 2",72%
same,Total Cell Density,"[2]; 100 mM initial lactate, Day 2",2.2 1 × 10^5/ml
same,% Viability,"[2]; 100 mM initial lactate, Day 4",50%
same,IgM,"[2]; 100 mM initial lactate, Day 4",11 µg/mL
same,Total Cell Density,"[2]; 100 mM initial lactate, Day 4",2.0 1 × 10^5/ml
same,IgM,"[2]; 100 mM initial lactate, Day 7",14 µg/mL
same,increase in specific (per cell) productivity,[2]; at 60 mM added lactate,up to 14 fold
same,effect on growth,"[2]; levels of added lactate above 40 mM, screen 0–100 mM",greatly inhibited
[Cl-].[Na+] [sodium chloride],decrease in maximum cell density,[3]; 400 mOsmol/kg using sodium chloride versus 300 mOsmol/kg control,50%
same,increase in specific IgG productivity,"[3]; 400 mOsmol/kg using sodium chloride, post exponential phase period",more than 60%
